Test results published in patent publication US9938301B2, “Dihydropyrimido fused ring derivative as HBV inhibitor” (QILU PHARMACEUTICAL CO., LTD., priority 2014, dated 2018).

Columns and labels:
[1] = tested on: HBV DNA in HepG2.2.15 cells; assay: HBV in vitro assay quantitive qPCR test; assay type: cell-based; conditions: Hepatitis B virus, HepG2.2.15 cells
Experimental: • 1 Purpose of the test: • The content of HBV DNA in HepG2.2.15 cells was detected by real time quantitive qPCR test to evaluate an inhibitory action of the compound on HBV with an EC50 value of the compound as an indicator. • 2 Experimental materials: • 2.1 Cell lines: HepG2.2.15 Cells • HepG2.2.15 cell culture media (DMEM/F12, Invitrogen-11330057; 10% serum, Invitrogen-10099141; 100 units/ml Penicillin and 10 μg/ml Streptomycin, Invitrogen-15140122; 1% non-essential amino acid, Invitrogen-1140076; 2 mM L-GLUTAMINE, Invitrogen-25030081; 300 μg/ml Geneticin, Invitrogen-10131027 • 2.2 Reagents: • trypsin (Invitrogen-25300062) • DPBS (Hyclone-SH30028.01B) • DMSO (Sigma-D2650-100ML) • High-Throughput DNA Purification Kit (QIAamp 96 DNA Blood Kit, Qiagen-51162) • Quantitative Fast Start Universal Probe Reagent (FastStart Universal Probe Master, Roche-04914058001) • 2.3 Materials and Instruments: • 96-well cell culture plate (Corning-3599) • CO2 Incubator (HERA-CELL-240) • Optical Sealing Membrane (ABI-4311971) • Quantitative PCR 96-well Plate (Applied Biosystems-4306737) • Fluorescent Quantitative PCR Instrument (Applied Biosystems-7500 real time PCR system) • 3. Testing steps and Methods: • 3.1 HepG2.2.15 cells (4×10^4 cells/well) were planted into a 96-well plate, and at 37° C., 5% CO2 cultured overnight. • 3.2 On Day 2, the compounds were diluted in totally 8 concentrations with a dilution gradient of three times. The compounds at different concentrations were added into the culture wells in duplicate. The final concentration of DMSO in the culture media was 1%. 1 μM GLS4 was used as 100% inhibition control; 1% DMSO as 0% inhibition control. • 3.3 On Day 5, replacing with the fresh culture media containing the compound was performed. • 3.4 On Day 8, the culture media in the culture wells was collected, and DNA was extracted with a High-Throughput DNA Purification Kit (Qiagen-51162), See Specification of the product for specific steps. • 3.5 Preparation of PCR Reaction Mixture was shown in Table 1:
• 3.6 To each well of a 96-well PCR plate was added 15 μl reaction mixture, and then to each well was added 10 μl sample DNA or HBV DNA standard. • 3.7 The reaction conditions of PCR were: heating at 95° C. for 10 minutes; then at 95° C. denaturing for 15 seconds, and at 60° C. extending for 1 minute, totally 40 cycles. • 3.8 Data Analysis: • 3.8.1 The inhibition percentage was calculated: % Inh.=[1−(DNA copy number in sample−DNA copy number in 1 μM GLS4)/(DNA copy number in DMSO control−DNA copy number in 1 μM GLS4)]×100. • 3.8.2 Calculating EC50: the concentration of the compound for 50% inhibition of HBV (EC50) was calculated by using GraphPad Prism Software. • 4 Testing Results • The testing results were shown in Table 3: […]

[2] = tested on: HBV DNA in HepG2.2.15 cells; assay: HBV in vitro dot-blot hybridization test; assay type: cell-based, Hepatitis B virus
Procedure, shortened: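 HepG2.2.15 cells (4×10^4/well) treated in duplicate with 6 five-fold compound dilutions (1% DMSO final), medium with compound renewed on day 5, cells harvested day 8-9. Intracellular HBV DNA quantified by dot-blot with DIG-labelled probe; % inhibition normalised to 1 μM GLS4 (100%) and DMSO (0%), EC50 fitted.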

[3] = qPCR assay, read-out: Concentration for 50% inhibition of HBV (EC50)value
[4] = summary list of target compounds, Examples 166-220 (values of Table 3), read-out: BIOACTIVITY (inhibitory actions on HBV DNA, EC50)
[5] = Hepatitis B virus, HepG2.2.15, dot-blot hybridization assay, read-out: Concentration for 50% inhibition of HBV (EC50)value
[6] = Hepatitis B virus, HepG2.2.15, summary list of target compounds, Examples 1-165 (same as Table 2), read-out: BIOACTIVITY (inhibitory actions on HBV DNA, EC50)

Row | SMILES | EC50 [2, 5] [nM] | EC50 [2, 6] [nM] | also measured
1 | COC(=O)C1=C2C[C@H](N(C(C)C)S(C)(=O)=O)CN2C(c2nccs2)=N[C@H]1c1ccc(F)cc1Cl [Example 184] |  |  | EC50 [1, 3]: 100 to 500 nM; EC50 [1, 4]: 100 to 500 nM
2 | COC(=O)C1=C2C[C@H](NS(C)(=O)=O)CN2C(c2ncc(F)cc2F)=N[C@H]1c1ccc(F)cc1Cl [Example 191] |  |  | EC50 [1, 3]: < 100 nM; EC50 [1, 4]: < 100 nM
3 | COC(=O)C1=C2C[C@H](NS(C)(=O)=O)CN2C(c2nccs2)=N[C@H]1c1ccc(F)c(F)c1F [Example 167] |  |  | EC50 [1, 3]: < 100 nM; EC50 [1, 4]: < 100 nM
4 | COC(=O)C1=C2C[C@H](NS(=O)(=O)CCN(C)C)CN2C(c2nccs2)=N[C@H]1c1ccc(F)cc1Cl [Example 166] |  |  | EC50 [1, 3]: < 100 nM; EC50 [1, 4]: < 100 nM
5 | COC(=O)C1=C2C[C@H](NS(=O)(=O)O)CN2C(c2nccs2)=N[C@H]1c1ccc(F)cc1Cl [Example 175] |  |  | EC50 [1, 3]: 1000 to 5000 nM; EC50 [1, 4]: 1000 to 5000 nM
6 | COC(=O)C1=C2C[C@H](N(CC#N)S(C)(=O)=O)CN2C(c2nccs2)=N[C@H]1c1ccc(F)cc1Cl [Example 182] |  |  | EC50 [1, 3]: < 100 nM; EC50 [1, 4]: < 100 nM
7 | COC(=O)C1=C2C[C@@H](NS(C)(=O)=O)CN2C(c2nccs2)=N[C@H]1c1ccc(F)cc1Cl [Example 181] |  |  | EC50 [1, 3]: < 100 nM; EC50 [1, 4]: < 100 nM
8 | COC(=O)C1=C2C[C@H](NS(=O)(=O)N(C)C)CN2C(c2nccs2)=N[C@H]1c1cccc(F)c1Cl [Example 215] |  |  | EC50 [1, 3]: < 100 nM; EC50 [1, 4]: < 100 nM
9 | CCOC(=O)C1=C2CN(C(=O)C3CC3)CCN2C(c2nccs2)=N[C@H]1c1ccc(F)cc1Br [Example 91] | 100 to 500 | 100 to 500 | 
10 | CCOC(=O)C1=C2CCCN2C(c2nccs2)=NC1(C)c1ccc(F)cc1 (racemic) [Example 75] | 1000 to 5000 | 1000 to 5000 | 
11 | CCOC(=O)C1=C2C[C@@H](C(N)=O)CN2C(c2nccs2)=N[C@H]1c1ccc(F)cc1Cl [Example 30] | 100 to 500 | 100 to 500 | 
12 | CCOC(=O)C1=C2CN(C3COC3)CCN2C(c2nccs2)=N[C@H]1c1ccc(F)cc1Br [Example 102] | 500 to 1000 | 500 to 1000 | 
13 | CNS(=O)(=O)N[C@H]1CC2=C(C(=O)OC)[C@H](c3ccc(F)cc3Cl)N=C(c3nccs3)N2C1 [Example 160] | < 100 | < 100 | 
14 | CCOC(=O)C1=C2CN(C)C(=O)CN2C(c2nccs2)=NC1c1ccc(F)cc1Br (racemic) [Example 105] | 500 to 1000 | 500 to 1000 | 
15 | CCOC(=O)C1=C2C[C@H](NC(=O)OC)CN2C(c2nccs2)=N[C@H]1c1ccc(F)cc1Br [Example 44] | < 100 | < 100 | 
16 | CCOC(=O)C1=C2CN(C(=O)C3COC3)CCN2C(c2nccs2)=N[C@H]1c1ccc(F)cc1Br [Example 118] | 100 to 500 | 100 to 500 | 
17 | CCOC(=O)C1=C2CN(C)CCN2C(c2nccs2)=NC1c1ccc(F)cc1Br (racemic) [Example 96] | 1000 to 5000 | 1000 to 5000 | 
18 | CCOC(=O)C1=C2C[C@H](O)CN2C(c2nccs2)=N[C@H]1c1ccc(F)cc1Cl [Example 34] | 100 to 500 | 100 to 500 | 
19 | CCOC(=O)C1=C2C[C@H](CN3CCOCC3)CN2C(c2nccs2)=N[C@H]1c1ccc(F)cc1Br [Example 15] | 100 to 500 | 100 to 500 | 
20 | CCOC(=O)C1=C2C[C@H](N(C)S(=O)(=O)NC)CN2C(c2nccs2)=N[C@H]1c1ccc(F)cc1Br [Example 56] | < 100 | < 100 | 
21 | CCOC(=O)C1=C2C[C@@H](CN3CCC[C@H]3C(=O)OC)CN2C(c2nccs2)=N[C@H]1c1ccc(F)cc1Br [Example 21] | 1000 to 5000 | 1000 to 5000 | 

Row | SMILES | EC50 [2, 5] [nM] | EC50 [2, 6] [nM] | also measured
22 | CCOC(=O)C1=C2C[C@H](NS(C)(=O)=O)CN2C(c2nccs2)=N[C@H]1c1ccc(F)cc1Cl [Example 125] | < 100 | < 100 | 
23 | CCOC(=O)C1=C2CC(NC(=O)NC)CN2C(c2nccs2)=N[C@H]1c1ccc(F)cc1Br (stereo partly drawn) [Example 52] | 500 to 1000 | 500 to 1000 | 
24 | CCOC(=O)C1=C2CCCN2C(c2nccs2)=NC1c1ccc(F)cc1Cl (racemic) [Example 1] | 100 to 500 | 100 to 500 | 
25 | CCOC(=O)C1=C2C[C@H](NS(=O)(=O)/C=C/F)CN2C(c2nccs2)=N[C@H]1c1ccc(F)cc1Cl [Example 129] | < 100 | < 100 | 
26 | CCOC(=O)C1=C2CC(NC(=O)NC)CN2C(c2nccs2)=N[C@H]1c1ccc(F)cc1Br (mixture of isomers) [Example 51] | 100 to 500 | 100 to 500 | 
27 | CCOC(=O)C1=C2C[C@H](NS(C)(=O)=O)CN2C(c2nccs2)=N[C@H]1c1ccc(F)cc1F [Example 138] | < 100 | < 100 | 
28 | CCOC(=O)C1=C2C[C@@H](N(C)S(C)(=O)=O)CN2C(c2nccs2)=N[C@H]1c1ccc(F)cc1Br [Example 127] | < 100 | < 100 | 
29 | CCOC(=O)C1=C2CCCC(=O)N2C(c2nccs2)=N[C@H]1c1ccc(F)cc1Br (racemic) [Example 108] | 1000 to 5000 | 1000 to 5000 | 
30 | CCOC(=O)C1=C2CCOC(=O)N2C(c2nccs2)=NC1c1ccc(F)cc1Cl (racemic) [Example 111] | 1000 to 5000 | 1000 to 5000 | 
31 | CCOC(=O)C1=C2C[C@H](CNS(=O)(=O)C3CC3)CN2C(c2nccs2)=N[C@H]1c1ccc(F)cc1Br [Example 121] | < 100 | < 100 | 
32 | CCOC(=O)C1=C2C[C@@H](CC#N)CN2C(c2nccs2)=NC1c1ccc(F)cc1Br (mixture of isomers) [Example 12] |  |  | EC50 ([2]; dot-blot hybridization assay, read-out: Concentration for 50% inhibition of HBV (EC50)value): 100 to 500 nM; EC50 ([2]; summary list of target compounds, Examples 1-165 (same as Table 2), read-out: BIOACTIVITY (inhibitory actions on HBV DNA, EC50)): 100 to 500 nM
33 | CCOC(=O)C1=C2C[C@@H](CO)CN2C(c2nccs2)=NC1c1ccc(F)cc1Br (mixture of isomers) [Example 8] | 100 to 500 | 100 to 500 | 
34 | CCOC(=O)C1=C2CCCN2C(c2nccn2C)=NC1c1ccc(F)cc1Cl (racemic) [Example 78] | 1000 to 5000 | 1000 to 5000 | 
35 | CCOC(=O)C1=C2C[C@H](NS(C)(=O)=O)CN2C(c2nccs2)=N[C@H]1c1ccc(F)c(F)c1 [Example 148] | 100 to 500 | 100 to 500 | 
36 | COC(=O)C1=C2C[C@H](NS(C)(=O)=O)CN2C(c2nccs2)=N[C@H]1c1cccc(F)c1Cl [Example 165] | < 100 | < 100 | 
37 | CCOC(=O)C1=C2C[C@@H](NC(=O)OC)CN2C(c2nccs2)=N[C@H]1c1ccc(F)cc1Br [Example 43] | 100 to 500 | 100 to 500 | 
38 | CCOC(=O)C1=C2CN(C(C)=O)CCN2C(c2nccs2)=NC1c1ccc(F)cc1Br (racemic) [Example 86] | 500 to 1000 | 500 to 1000 | 
39 | CCOC(=O)C1=C2CCCN2C(c2nccs2)=NC1c1ccc(F)cc1Br (racemic) [Example 4] | 100 to 500 | 100 to 500 | 
40 | CCOC(=O)C1=C2CN(S(=O)(=O)NC)CCN2C(c2nccs2)=N[C@H]1c1ccc(F)cc1Br [Example 84] | 100 to 500 | 100 to 500 | 
41 | CCOC(=O)C1=C2[C@H](NS(C)(=O)=O)CCN2C(c2nccs2)=N[C@H]1c1ccc(F)cc1Br [Example 147] | 1000 to 5000 | 1000 to 5000 | 
42 | CCOC(=O)C1=C2C[C@H](N(C)S(C)(=O)=O)CN2C(c2nccs2)=N[C@H]1c1ccc(F)cc1Cl [Example 157] | < 100 | < 100 | 
